In ChEMBL document CHEMBL1145620, “Synthesis and evaluation of sulfamide-type indolizidines as glycosidase inhibitors” (Bioorg Med Chem Lett, 2008):
Calls of active or inactive are those of the source. The rule behind the calls is not given here.

Tests used:
Canavalia ensiformis = assay: (§1) Inhibition of jack beans alpha-mannosidase
[1] = (§2) Inhibition of yeast alpha-glucosidase; set-up: species or system Saccharomyces cerevisiae
Cornu aspersum = assay: Inhibition of snail beta-mannosidase
[2] = Inhibition of bovine liver beta-glucosidase; set-up: species or system Bos taurus
[3] = as §1; set-up: species or system Canavalia ensiformis
Saccharomyces cerevisiae [4] = assay: Inhibition of yeast isomaltase
Saccharomyces cerevisiae [5] = assay: as §2
Aspergillus niger = assay: Inhibition of Aspergillus niger amyloglucosidase
[6] = molecular target: T1, Beta-galactosidase (Bos taurus) (UniProt Q58D55); assay: Inhibition of bovine liver beta-galactosidase
T1 sequence (whole entry): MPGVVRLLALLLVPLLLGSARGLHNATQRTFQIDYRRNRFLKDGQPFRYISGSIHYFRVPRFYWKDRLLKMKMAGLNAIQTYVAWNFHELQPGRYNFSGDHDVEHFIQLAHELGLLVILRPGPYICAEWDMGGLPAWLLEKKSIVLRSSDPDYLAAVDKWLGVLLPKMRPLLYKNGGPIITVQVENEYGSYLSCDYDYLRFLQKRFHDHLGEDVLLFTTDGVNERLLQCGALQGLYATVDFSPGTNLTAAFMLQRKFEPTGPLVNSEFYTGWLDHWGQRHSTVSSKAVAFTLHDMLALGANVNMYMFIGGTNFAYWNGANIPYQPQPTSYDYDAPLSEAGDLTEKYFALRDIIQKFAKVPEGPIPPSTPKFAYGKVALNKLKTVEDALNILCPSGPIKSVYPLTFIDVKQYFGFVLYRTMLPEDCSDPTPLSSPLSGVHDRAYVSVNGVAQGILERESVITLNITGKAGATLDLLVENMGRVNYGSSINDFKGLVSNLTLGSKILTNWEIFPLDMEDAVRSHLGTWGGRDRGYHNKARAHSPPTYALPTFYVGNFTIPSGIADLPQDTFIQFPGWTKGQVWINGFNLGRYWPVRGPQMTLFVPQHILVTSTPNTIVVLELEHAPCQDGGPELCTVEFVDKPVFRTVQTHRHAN

[7] = molecular target: Alpha-galactosidase (Coffea arabica) (UniProt Q5DUH8); assay: Inhibition of green coffee beans alpha-galactosidase
Penicillium decumbens = assay: Inhibition of Penicillium decumbens naringinase
Prunus dulcis = assay: Inhibition of almonds beta-glucosidase
[8] = molecular target: T2, Uncharacterized protein (Sus scrofa) (UniProt I3LIR5); assay: Inhibition of pig kidney trehalase
T2 sequence (whole entry): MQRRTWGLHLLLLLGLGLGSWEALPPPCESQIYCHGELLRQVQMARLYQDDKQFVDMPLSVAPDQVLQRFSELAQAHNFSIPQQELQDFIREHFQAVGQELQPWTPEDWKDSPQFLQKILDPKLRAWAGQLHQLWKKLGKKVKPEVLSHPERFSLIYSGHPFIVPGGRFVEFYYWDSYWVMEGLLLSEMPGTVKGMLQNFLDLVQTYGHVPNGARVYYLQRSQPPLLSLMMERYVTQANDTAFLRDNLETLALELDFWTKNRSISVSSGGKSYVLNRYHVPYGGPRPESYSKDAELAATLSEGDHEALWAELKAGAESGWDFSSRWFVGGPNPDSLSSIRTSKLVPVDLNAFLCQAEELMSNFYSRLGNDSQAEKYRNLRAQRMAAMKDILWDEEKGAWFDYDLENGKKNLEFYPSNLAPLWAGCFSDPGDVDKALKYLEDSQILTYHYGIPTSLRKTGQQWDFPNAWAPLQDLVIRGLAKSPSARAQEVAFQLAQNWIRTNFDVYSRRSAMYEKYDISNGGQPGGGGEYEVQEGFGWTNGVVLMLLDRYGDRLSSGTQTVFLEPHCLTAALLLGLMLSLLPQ

Sequence of Alpha-galactosidase (Coffea arabica) (Q5DUH8 as listed by the source): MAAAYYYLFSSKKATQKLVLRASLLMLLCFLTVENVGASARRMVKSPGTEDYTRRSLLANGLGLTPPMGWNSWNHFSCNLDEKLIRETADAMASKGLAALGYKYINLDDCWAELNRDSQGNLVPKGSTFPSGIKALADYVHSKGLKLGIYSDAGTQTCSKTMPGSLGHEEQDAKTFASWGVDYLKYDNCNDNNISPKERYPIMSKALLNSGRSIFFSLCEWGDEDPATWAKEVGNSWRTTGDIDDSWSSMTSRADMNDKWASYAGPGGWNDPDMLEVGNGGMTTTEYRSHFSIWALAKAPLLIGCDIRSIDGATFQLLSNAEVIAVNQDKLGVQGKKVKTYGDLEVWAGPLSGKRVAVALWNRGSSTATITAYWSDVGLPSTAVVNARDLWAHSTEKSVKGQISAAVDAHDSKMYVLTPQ

Activity (Canavalia ensiformis)	Ki [1] [µM]	Activity (Cornu aspersum)	SMILES	also measured
Active	40	Active	O=C1OC[C@@H]2[C@@H](O)[C@H](O)[C@@H](O)[C@@H](O)N12	
Active	2.2	Active	O[C@@H]1[C@@H](O)[C@@H](O)N2C(=S)OC[C@@H]2[C@H]1O	
Active		Active	CCCC/N=C1/OC[C@@H]2[C@@H](O)[C@H](O)[C@@H](O)[C@@H](O)N12	Ki [2]: 2.2 µM
			O=S1(=O)NC[C@@H]2[C@@H](O)[C@H](O)[C@H](O)C(O)N21 (stereo partly specified)	Ki [3]: 150 µM
		inactive	O=S1(=O)NC[C@@H]2[C@@H](O)[C@H](O)[C@@H](O)C(O)N21 (stereo partly specified)	Activity (Saccharomyces cerevisiae [4]): inactive; Ki [3]: 320 µM; Activity (Saccharomyces cerevisiae [5]): inactive; Activity (Aspergillus niger): inactive; Activity [6]: inactive; Activity [7]: inactive; Activity (Penicillium decumbens): inactive; Activity (Prunus dulcis): inactive; Activity [8]: inactive
Active	4200	Active	O[C@@H]1[C@@H](O)[C@@H](O)N2C(=S)NC[C@@H]2[C@H]1O	
Active	5700	Active	O=C1NC[C@@H]2[C@@H](O)[C@H](O)[C@@H](O)[C@@H](O)N12	
